Measurements from patent publication US6936631B2, “Bicyclic imidazo-5-yl-amine derivatives” (Gruenenthal GmbH, priority 1999, dated 2005).

System: α2-subtype of the human α-adrenergic receptor
Assay: SPA assay for affinity for the α2-subtype of the human α-adrenergic receptor (high throughput screening)
Format: binding
Settings: at a concentration of 10 μM
Protocol: The compounds according to the invention are ligands of the pain-relevant α2-subtype of the human α-adrenergic receptor. The affinity for the α2-subtype of the human α-adrenergic receptor was determined by means of a conventional SPA assay for high throughput screening, such as is described in John P. Devlin, High Throughput Screening, Marcel Dekker Inc. 1997, page 307 to 316. This literature is incorporated herein by reference and thus forms part of the disclosure. The following affinities were determined at a concentration of 10 μM: […]

Row | SMILES | alpha2 affinity, 10 μM
1 | CCCCNc1c(-c2ccc(C(C)(C)C)cc2)nc2sc(C)cn12 [Example 42, Butyl-[6-(4-tert-butyl-phenyl)-2-methyl-imidazo[2,1-b]thiazol-5-yl]-amine] | 36%
2 | CC(C)(C)Nc1c(-c2ccccc2F)nc2nc[nH]n12 [Example 43, tert-Butyl-[5-(2-fluorophenyl)-imidazo[1,2-b][1,2,4]triazol-6-yl]-amine] | 34%
3 | CC(C)(C)Nc1c(-c2ccccc2F)nc2sccn12 [Example 44, tert-Butyl-[6-(2-fluorophenyl)-imidazo[2,1-b]thiazol-5-yl]-amine] | 38%
4 | CC(C)(C)Nc1c(-c2cccc3ccccc23)nc2nc[nH]n12 [Example 45, tert-Butyl-(5-naphthalen-1-yl-imidazo[1,2-b][1,2,4]triazol-6-yl)-amine] | 41%
5 | c1ccc2c(-c3nc4nc[nH]n4c3NC3CCCCC3)cccc2c1 [Example 46, Cyclohexyl-(5-naphthalen-1-yl-imidazo[1,2-b][1,2,4]triazol-6-yl)-amine] | 46%
6 | CC(C)(C)CC(C)(C)Nc1c(-c2ccccc2Br)nc2nc[nH]n12 [Example 47, [5-(2-Bromophenyl)-imidazo[1,2-b][1,2,4]triazol-6-yl]-(1,1,3,3-tetramethyl-butyl)-amine] | 42%
7 | CC(=O)Nc1ccc(-c2nc3nc[nH]n3c2NC2CCCCC2)cc1 [Example 48, N-[4-(6-Cyclohexylamino-imidazo[1,2-b][1,2,4]triazol-5-yl) -phenyl]-acetamide] | 36%
8 | Cc1ccc(C)c(-c2nc3nc[nH]n3c2NC(C)(C)C)c1 [Example 49, tert-Butyl-[5-(2,5-dimethyl-phenyl)-imidazo[1,2-b][1,2,4]triazol-6-yl]-amine] | 38%
9 | Cc1ccc(-c2nc3sccn3c2NC2CCCCC2)c(C)c1 [Example 50, Cyclohexyl-[6-(2,4-dimethyl-phenyl)-imidazo[2,1-b]thiazol-5-yl]-amine] | 36%
10 | Cc1ccc(C)c(-c2nc3sccn3c2NC2CCCCC2)c1 [Example 51, Cyclohexyl-[6-(2,5-dimethylphenyl)-imidazo[2,1-b]thiazol-5-yl]-amine] | 39%
11 | CC(=O)N(c1c(-c2ccc(C)cc2)nc2sccn12)C(C)(C)C [Example 52, N-tert-Butyl-N-(6-p-tolyl-imidazo[2,1-b]thiazol-5-yl)-acetamide] | 51%
12 | Cc1ccc(-c2nc3nc[nH]n3c2NC(C)(C)CC(C)(C)C)c(C)c1 [Example 53, [5-(2,4-dimethyl-phenyl)-imidazo[1,2-b][1,2,4]triazol-6-yl]-(1,1,3,3-tetramethyl-butyl) -amine] | 43%
13 | Cc1ccc(C)c(-c2nc3nc[nH]n3c2NC(C)(C)CC(C)(C)C)c1 [Example 54, [5-(2,5-Dimethyl-phenyl)-imidazo [1,2-b][1,2,4]triazol-6-yl]-(1,1,3,3-tetramethyl-butyl) -amine] | 56%
14 | CCCCN(C(C)=O)c1c(-c2c(F)cccc2Cl)nc2nc[nH]n12 [Example 55, N-Butyl-N-[5-(2-chloro-6-fluorophenyl)-imidazo[1,2-b][1,2,4]triazol-6-yl]-acetamide] | 39%
15 | CCCCN(C(C)=O)c1c(-c2ccc(C(C)(C)C)cc2)nc2sc(C)cn12 [Example 56, N-Butyl-N-[6-(4-tert-butyl-phenyl)-2-methyl-imidazo[2,1-b]thiazol-5-yl]-acetamide] | 46%
